For series [1], the target named is T1, OAT2-tv1 (Homo sapiens, UniProt Q9Y694).
T1 sequence (Q9Y694 1-546 isoform Q9Y694-2): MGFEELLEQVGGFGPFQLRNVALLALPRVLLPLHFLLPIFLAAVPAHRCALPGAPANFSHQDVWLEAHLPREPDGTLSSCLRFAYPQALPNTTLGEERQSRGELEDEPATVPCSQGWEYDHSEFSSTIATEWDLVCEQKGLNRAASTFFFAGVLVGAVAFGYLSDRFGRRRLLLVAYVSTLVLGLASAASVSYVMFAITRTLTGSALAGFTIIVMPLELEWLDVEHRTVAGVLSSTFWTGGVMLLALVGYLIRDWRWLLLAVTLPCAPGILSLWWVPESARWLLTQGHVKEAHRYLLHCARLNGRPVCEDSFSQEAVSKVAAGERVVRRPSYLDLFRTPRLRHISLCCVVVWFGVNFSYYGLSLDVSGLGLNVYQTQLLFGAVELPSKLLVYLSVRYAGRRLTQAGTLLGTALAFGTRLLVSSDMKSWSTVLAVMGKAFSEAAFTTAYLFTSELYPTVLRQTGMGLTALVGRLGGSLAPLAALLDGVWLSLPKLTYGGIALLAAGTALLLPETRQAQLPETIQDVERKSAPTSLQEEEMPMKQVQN
Also on record: The open reading frame of the human ortholog of OAT2 transcript variant 1 (OAT2-tv1) containing 546 amino acids was amplified from human kidney cDNA; expressed in transfected cells; host or cells: CHO Flp-In (A1); CHO, HEK and MDCK Flp-In (A2). The conditions noted are these: ref Babelova et al., 2015; cited from earlier work.

The target of series [2] is T1, OAT2-tv1. Briefly: Inhibition of [3H]penciclovir uptake into CHO-OAT2-tv1 cells. In kind it is cell-based. As to conditions: 5 min; for cis-inhibition of penciclovir uptake: CHO-OAT2-tv1 cells, test compound 1 mM, [3H]penciclovir ∼30 nM. As for the experimental part:
(§1) All experiments examining cellular radiolabeled compound uptake were conducted using cells grown to confluence in 24-well flat bottom plates. The transport solution consisted of WB (room temperature) containing radiolabeled compound and the uptake period for all experiments was at an initial rate time point of 5 min. [^3H]Penciclovir served as the probe OAT2 substrate. We also examined the uptake of [^3H]para-aminohippurate, [^3H]estrone-3-sulfate, [^14C]glutarate, [^14C]succinate, [^3H]paclitaxel, and [^3H]dehydroepiandrosterone sulfate by OAT2 since published studies indicate that they are substrates of the transport protein ([Sun et al., 2001]; [Kobayashi et al., 2005a]). […] For all cellular uptake experiments, the medium was aspirated and the cells were rinsed once with WB (0.3 ml). Following the uptake period, cells were washed three times with ice-cold WB (0.5 ml each wash). After aspirating the final wash the cells were lysed in 0.5 N NaOH/1% SDS (0.4 ml) for ∼30 min on an orbital shaker. 1 N HCl (0.2 ml) was then added to neutralize the NaOH, and the cell lysates (0.5 ml) were transferred to scintillation vials containing liquid scintillation cocktail (CytoScint ES, MP Biomedicals). Cellular radioactivity content was determined with a Beckman LS6500 liquid scintillation counter. Protein content was determined using the bicinchoninic acid method. See the Figure and Table Legends for additional details describing the experimental conditions used.
The concentration of each Kreb’s cycle intermediate was 1 mM. Uptake was conducted for 5 min.

In the next series the test system is CHO parental cells. Briefly: Cellular accumulation of radiolabeled compounds in CHO parental cells. It counts as cell-based, Chinese hamster. As to conditions: [3H]dehydroepiandrosterone sulfate 12 nM, [3H]paclitaxel 22 nM, n = 3.
Series [3] has as its system OAT2 (sequence not given). The conditions noted are these: variant unclear; ref Sun et al., 2001; cited from earlier work.
Series [4] has as its target T1, OAT2-tv1. Nature of the series: Cellular uptake of radiolabeled compounds by CHO, HEK or MDCK cells stably expressing OAT2-tv1. As for the experimental part:
as §1
FIGURE 2 Cellular accumulation of [^3H]penciclovir (A), [^3H]para-aminohippurate (B), [^3H]estrone-3-sulfate (C), or [^14C]glutarate (D) by parental CHO, HEK, or MDCK cells, or CHO, HEK, or MDCK cells stably expressing either OAT2-tv1 or OAT2-tv2. The concentration of [^3H]penciclovir in the transport solution was 0.1 μM for CHO and MDCK cell experiments, and 0.5 μM for HEK cell experiments. The concentrations of [^3H]para-aminohippurate, [^3H]estrone-3-sulfate and [^14C]glutarate were 8 nM, 10 nM, and 18 μM, respectively. Uptake was conducted for 5 min at room temperature.
FIGURE 4 Cellular accumulation of [^14C]succinate (18.5 μM) by CHO parental cells, CHO-OAT2-tv1 cells or CHO cells stably expressing the Na-dicarboxylate cotransporter 3 (NaDC3). Uptake was conducted for 5 min. Values are the mean ± standard error of the mean of four experiments for CHO parental and CHO-OAT2-tv1 cells. A single uptake experiment was performed with CHO-NaDC3 cells.

The target in series [5] is Na-dicarboxylate cotransporter 3 (NaDC3) (Homo sapiens, UniProt Q8WWT9). As to conditions: CHO-NaDC3 cells; [14C]succinate 18.5 μM; 5 min; single experiment (n = 1). How it is done: as §1, with “See the Figure and Table Legends for additional details describing the experimental conditions used.” left out
The subject of the next series is OAT2-tv3. Further details: method as in Sato et al., 2010. As to conditions: ref Sato et al., 2010, cited from earlier work.
The target in a further series is T2, OAT2-tv2 (Homo sapiens, UniProt Q9Y694).
T2 sequence (Q9Y694 1-548): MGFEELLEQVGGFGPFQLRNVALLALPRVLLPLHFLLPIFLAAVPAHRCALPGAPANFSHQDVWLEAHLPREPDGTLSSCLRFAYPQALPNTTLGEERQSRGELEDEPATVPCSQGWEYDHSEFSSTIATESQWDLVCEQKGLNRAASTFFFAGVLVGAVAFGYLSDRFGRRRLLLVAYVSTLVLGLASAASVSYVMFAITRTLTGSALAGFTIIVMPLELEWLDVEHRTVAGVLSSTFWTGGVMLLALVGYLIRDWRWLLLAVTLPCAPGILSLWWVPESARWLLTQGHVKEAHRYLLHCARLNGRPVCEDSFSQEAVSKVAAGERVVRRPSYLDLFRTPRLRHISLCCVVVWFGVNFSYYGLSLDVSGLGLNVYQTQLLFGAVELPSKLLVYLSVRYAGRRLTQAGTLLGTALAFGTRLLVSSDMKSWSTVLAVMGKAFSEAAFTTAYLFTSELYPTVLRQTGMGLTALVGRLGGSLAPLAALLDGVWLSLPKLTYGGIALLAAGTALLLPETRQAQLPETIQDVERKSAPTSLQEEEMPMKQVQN
Further details: method as in Kobayashi et al., 2005a. As to conditions: OAT2-tv2 in Xenopus oocytes pre-loaded with 5 mM compound; ref Kobayashi et al., 2005a; cited from earlier work.

For series [6], the target named is T1, OAT2-tv1. The conditions noted are these: ref Cropp et al., 2008; cited from earlier work.

These results are taken from article PMC4594013 (Frontiers in Pharmacology, 2015).

Several values for one entry are separate records, joined by “and”; a condition that tells them apart may be missing. Identical values can stand only once. Entries after “also recorded” stand apart in the source; their conditions may differ. Counter-ions that a name gives are not always drawn.

Na-dicarboxylate cotransporter 3 (NaDC3), sequence (Q8WWT9 whole entry, species assumed): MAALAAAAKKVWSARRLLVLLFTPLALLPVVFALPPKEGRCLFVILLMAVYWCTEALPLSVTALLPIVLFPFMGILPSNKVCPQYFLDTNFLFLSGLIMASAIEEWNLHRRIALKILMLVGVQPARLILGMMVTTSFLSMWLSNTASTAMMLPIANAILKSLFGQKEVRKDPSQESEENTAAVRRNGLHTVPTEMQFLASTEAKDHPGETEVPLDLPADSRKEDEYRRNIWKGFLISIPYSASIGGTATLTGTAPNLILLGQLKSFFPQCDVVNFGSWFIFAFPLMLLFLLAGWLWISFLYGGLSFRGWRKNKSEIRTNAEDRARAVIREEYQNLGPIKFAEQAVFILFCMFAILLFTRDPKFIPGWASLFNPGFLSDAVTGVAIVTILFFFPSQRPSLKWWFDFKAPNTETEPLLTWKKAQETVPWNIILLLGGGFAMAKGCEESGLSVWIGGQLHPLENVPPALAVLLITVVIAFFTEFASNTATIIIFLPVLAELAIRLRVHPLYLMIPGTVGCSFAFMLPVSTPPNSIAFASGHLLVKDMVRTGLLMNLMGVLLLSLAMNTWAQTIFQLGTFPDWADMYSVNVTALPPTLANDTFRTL

In the case of `O=C(O)/C=C(/CC(=O)O)C(=O)O` [cis-aconitate], the “cis-inhibition of OAT2-tv1-mediated cGMP transport” value on OAT2-tv1 [1] was “did not observe cis-inhibition”. For the same compound, the “cis-inhibition of penciclovir uptake” value at OAT2-tv1 [2] was “none of the Kreb’s cycle intermediates tested, including succinate and fumarate, cis-inhibited penciclovir uptake”.

In the case of `O=C(O)CC(O)(CC(=O)O)C(=O)O` [citrate], the “cis-inhibition of OAT2-tv1-mediated cGMP transport” value at OAT2-tv1 [1] was “did not observe cis-inhibition”. Besides, on OAT2-tv1 [2], the “cis-inhibition of penciclovir uptake” value was “none of the Kreb’s cycle intermediates tested, including succinate and fumarate, cis-inhibited penciclovir uptake”.

For the compound `C[C@]12CC[C@H](OS(=O)(=O)O)CC1=CC[C@@H]1[C@@H]2CC[C@]2(C)C(=O)CC[C@@H]12` [dehydroepiandrosterone sulfate], the cellular accumulation with CHO parental cells is listed as 10.3 ± 1.1 fmoles ⋅ mg protein^-1 ⋅ min^-1; at OAT2-tv1 [4] (CHO-OAT2-tv1 cells, [3H]dehydroepiandrosterone sulfate 12 nM, [3H]paclitaxel 22 nM, n = 3) it was 11.0 ± 0.54 fmoles ⋅ mg protein^-1 ⋅ min^-1. In addition, the “transport by OAT2” value in series [3] is given as “did not observe transport”. Moreover, the “mediated transport by OAT2-tv1” value on OAT2-tv1 [4] (expressed in CHO cells) is listed as “unable to show mediated transport”.

Regarding `O=C(O)CCC(=O)O` [succinate], the “uptake of [14C]succinate, fold higher than control” value in series [5] is on record as roughly 30 fold. For the same compound, in the series with OAT2-tv3 (OAT2-tv3 in HEK cells pre-loaded with succinate (100 mM)), the “stimulation of urate uptake by pre-loading” value was “failed to observe stimulation”. Besides, the “stimulation of estrone-3-sulfate uptake by pre-loading” value on OAT2-tv2 is 2.1 fold. Moreover, on OAT2-tv1 [4] (CHO-OAT2-tv1 cells, [14C]succinate 18.5 μM, 5 min), the “uptake of [14C]succinate compared to parental CHO cells” value is “not different than uptake into the parental CHO cells; also recorded: no significant difference; also recorded: not transported”. Further, the “cis-inhibition of penciclovir uptake” value on OAT2-tv1 [2] is “none of the Kreb’s cycle intermediates tested, including succinate and fumarate, cis-inhibited penciclovir uptake”.

On to `O=C(O)/C=C/C(=O)O` [fumarate], for which the “stimulation of estrone-3-sulfate uptake by pre-loading” value at OAT2-tv2 is recorded as 1.7 fold. Also, the “cis-inhibition of penciclovir uptake” value at OAT2-tv1 [2] is “none of the Kreb’s cycle intermediates tested, including succinate and fumarate, cis-inhibited penciclovir uptake”.

As for `Oc1ncnc2[nH]ncc12` [Allopurinol], in the series with OAT2-tv3 (OAT2-tv3 in HEK293 cells), the “inhibition of uric acid transport” value is “did not inhibit uric acid transport”. For the same compound, the “substrate of OAT2-tv1” value at OAT2-tv1 [6] is reported as “substrate”. For the same compound, the IC50 against OAT2-tv1 [2] (IC50, inhibition of [3H]penciclovir uptake by CHO-OAT2-tv1 cells, room temperature) was 70 µM and 70.1 µM. Also, the “% Inhibition” value on OAT2-tv1 [2] (inhibition of [3H]penciclovir uptake by CHO-OAT2-tv1 cells at the maximum concentration of test compound (Table 2, c1), room temperature) was found to be 95%.

The IC50 is the point on the concentration scale where inhibition reaches its midpoint. A lower IC50 goes with greater potency in that assay. Usually % Inhibition stands for the percentage by which the read-out fell short of the control.
